Results from paper PMC5078989, “Targeted inhibition of the COP9 signalosome for treatment of cancer” (Nature Communications, 2016).

Tested on: panel of cancer cell lines
Assay: Cell viability (CellTiter-Glo) dose-response across cancer cell line panel;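 further: after 72 h compound incubation with CellTiter-Glo ATP readout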
Assay type: cell-based, human
Details: Homo sapiens
Excerpt: Next, we explored the effect of CSN5 inhibition on the viability of cancer cells. To obtain a comprehensive picture, we generated dose–response curves with a CSN5 inhibitor across more than 500 cancer cell lines in a previously described standardized setting[47] (Supplementary Data 1).
A standardized CellTiter-Glo Assay (Promega #G7570) based on the quantification of ATP was applied according to the manufacturer's protocol to measure the amount of viable cells in culture. In brief, cells were seeded into 384-well plates at optimal density for each cell line. After 4 h, compounds were added at different concentrations in growth medium and incubated for another 72 h in a humidifying chamber at 37 °C and 5% CO2. […] EC50 values were calculated from the plot of percentage of inhibition versus inhibitor concentration using the nonlinear regression analysis software Origin 7.5SR6 (OriginLab Corp.).

NS(=O)(=O)OC[C@@H]1C[C@@H](n2ccc3c(N[C@H]4CCc5ccccc54)ncnc32)C[C@@H]1O [MLN4924]
EC50 (MOLT-16, MOLT-16): 134 nM
EC50 (MSTO-211H): 366 nM
EC50 (MV4-11, MV-4-11): 74.8 nM
EC50 (Malme-3M): 521 nM
EC50 (MeWo): 279 nM
EC50 (Mono-Mac-1, MONO-MAC-1): 233 nM
EC50 (NALM-6, NALM-6): 432 nM
EC50 (NB1, NB-1): 213 nM
EC50 (NB-4, NB-4): 60.9 nM
EC50 (NCI-H23, NCI-H23): 532 nM
EC50 (NCI-H28, NCI-H28): 10800 nM
EC50 (NCI-H82, NCI-H82): 89.6 nM
EC50 (NCI-H146, NCI-H146): 240 nM
EC50 (NCI-H211, NCI-H211): 2840 nM
EC50 (NCI-H322, NCI-H322): 767 nM
EC50 (NCI-H460, NCI-H460): 1460 nM
EC50 (NCI-H520, NCI-H520): 4070 nM
EC50 (NCI-H647, NCI-H647): 3220 nM
EC50 (NCI-H650, NCI-H650): 424 nM
EC50 (NCI-H661, NCI-H661): 174 nM
EC50 (NCI-H747, NCI-H747): 2320 nM
EC50 (NCI-H810, NCI-H810): 26.5 nM
EC50 (NCI-H838, NCI-H838): 259 nM
EC50 (NCI-H841, NCI-H841): 204 nM
EC50 (NCI-H1048, NCI-H1048): 79.9 nM
EC50 (NCI-H1299, NCI-H1299): 460 nM
EC50 (NCI-H1339, NCI-H1339): 67 nM
EC50 (NCI-H1341): 86.4 nM
EC50 (NCI-H1355, NCI-H1355): 700 nM
EC50 (NCI-H1373, NCI-H1373): 655 nM
EC50 (NCI-H1437, NCI-H1437): 2820 nM
EC50 (NCI-H1568, NCI-H1568): 680 nM
EC50 (NCI-H1581, NCI-H1581): 296 nM
EC50 (NCI-H1650, NCI-H1650): 5840 nM
EC50 (NCI-H1666, NCI-H1666): 2270 nM
EC50 (NCI-H1693, NCI-H1693): 541 nM
EC50 (NCI-H1703, NCI-H1703): 32.1 nM
EC50 (NCI-H1755, NCI-H1755): 3310 nM
EC50 (NCI-H1792, NCI-H1792): 7900 nM
EC50 (NCI-H1915, NCI-H1915): 1160 nM
EC50 (NCI-H1975, NCI-H1975): 2710 nM
EC50 (NCI-H2023, NCI-H2023): 376 nM
EC50 (NCI-H2030, NCI-H2030): 402 nM
EC50 (NCI-H2073, NCI-H2073): 399 nM
EC50 (NCI-H2087, NCI-H2087): 493 nM
EC50 (NCI-H2110, NCI-H2110): 238 nM
EC50 (NCI-H2122, NCI-H2122): 335 nM
EC50 (NCI-H2126, NCI-H2126): 15200 nM
EC50 (NCI-H2170, NCI-H2170): 335 nM
EC50 (NCI-H2172, NCI-H2172): 10700 nM
EC50 (NCI-H2228, NCI-H2228): 1330 nM
EC50 (NCI-H2286, NCI-H2286): 119 nM
EC50 (NCI-H2444, NCI-H2444): 413 nM
EC50 (NCI-H2452, NCI-H2452): 1810 nM
EC50 (NCI-H3255, NCI-H3255): > 30000 nM
EC50 (NCI-N87, NCI-N87): 2980 nM
EC50 (NO36): 873 nM
EC50 (NOMO-1, NOMO-1): 137 nM
EC50 (NUGC-3, NUGC-3): 929 nM
EC50 (OCI-AML-3, OCI-AML3): 93.3 nM
EC50 (OCI-AML-5, OCI-AML5): 240 nM
EC50 (OCI-Ly3, OCI-LY3): 112 nM
EC50 (OCI-M1, OCI-M1): 34.3 nM
EC50 (OUMS-23, OUMS-23): 970 nM
EC50 (OV56, OV56): 387 nM
EC50 (OVCAR-3, NIH:OVCAR-3): 304 nM
EC50 (OVCAR-4, OVCAR-4): 789 nM
EC50 (OVISE): 791 nM
EC50 (P3HR-1, P3HR-1): 283 nM
EC50 (P12-Ichikawa): 208 nM
EC50 (P31-FUJ, P31/FUJ): 285 nM
EC50 (PANC-1, PANC-1): 3930 nM
EC50 (PANC-03-27, Panc 03.27): 401 nM
EC50 (PC-3, PC-3): 570 nM
EC50 (PC-14, PC-14): 884 nM
EC50 (PE/CA-PJ34 (clone C12)): 86.1 nM
EC50 (PE/CA-PJ49): 297 nM
EC50 (PF-382, PF-382): 216 nM
EC50 (PK-1, PK-1): 1370 nM
EC50 (PK-45H): 1610 nM
EC50 (PK-59, PK-59): 2030 nM
EC50 (PL45, PL45): 305 nM
EC50 (PL-21, PL-21): 136 nM
EC50 (PLC-PRF-5, PLC/PRF/5): 3760 nM
EC50 (PSN1, PSN1): 1190 nM
EC50 (PaTu 8902, PA-TU-8902): 898 nM
EC50 (PaTu 8988s, PA-TU-8988S): 12200 nM
EC50 (PaTu 8988t, PA-TU-8988T): 888 nM
EC50 (Panc 02.03, Panc 02.03): 3430 nM
EC50 (Panc 04.03, Panc 04.03): 245 nM
EC50 (Panc1005, Panc 10.05): 368 nM
EC50 (RCM-1, RCM-1): 8840 nM
EC50 (RD): 722 nM
EC50 (RD-ES): 162 nM
EC50 (RERF-LC-AI): 437 nM
EC50 (RERF-LC-MS): 719 nM
EC50 (RKN): 342 nM
EC50 (RKO): 163 nM
EC50 (RMUG-S): 4130 nM
EC50 (RPMI 8402, RPMI-8402): 92 nM
EC50 (RPMI-7951, RPMI-7951): 1020 nM
EC50 (RT-112, RT-112): 851 nM
EC50 (RVH-421, RVH-421): 727 nM
EC50 (Rh41, RH-41): 32.4 nM
EC50 (SCC-25, SCC-25): 561 nM
EC50 (SCaBER): 3560 nM
EC50 (SEM): 487 nM
EC50 (SF8657): > 30000 nM
EC50 (SF-268, SF-268): 472 nM
EC50 (SH-4, SH-4): 147 nM
EC50 (SH-10-TC): 19100 nM
EC50 (SH-SY5Y): 561 nM
EC50 (SJRH30, SJRH30): 72.9 nM
EC50 (SK-CO-1, SK-CO-1): 258 nM
EC50 (SK-ES1, SK-ES-1): 177 nM
EC50 (SK-HEP1, SK-HEP-1): 384 nM
EC50 (SK-LU-1, SK-LU-1): 915 nM
EC50 (SK-MEL3, SK-MEL-3): 722 nM
EC50 (SK-MEL-2, SK-MEL-2): 370 nM
EC50 (SK-MEL-5, SK-MEL-5): 552 nM
EC50 (SK-MEL-28, SK-MEL-28): 603 nM
EC50 (SK-MEL-30, SK-MEL-30): 418 nM
EC50 (SK-MES-1, SK-MES-1): 725 nM
EC50 (SK-N-SH): 1140 nM
EC50 (SK-OV-3, SK-OV-3): 1440 nM
EC50 (SKM-1, SKM-1): 85.6 nM
EC50 (SKNBE2, SK-N-BE(2)): 334 nM
EC50 (SNB-19, SNB-19): 626 nM
EC50 (SNG-M): 249 nM
EC50 (SNU668, SNU-668): 1520 nM
EC50 (SNU878, SNU-878): 746 nM
EC50 (SNU-8): 552 nM
EC50 (SNU-16, SNU-16): 272 nM
EC50 (SNU-61): 19000 nM
EC50 (SNU-81): 175 nM
EC50 (SNU-175): 317 nM
EC50 (SNU-213): 2080 nM
EC50 (SNU-324): 685 nM
EC50 (SNU-349): 319 nM
EC50 (SNU-387, SNU-387): 3860 nM
EC50 (SNU-398, SNU-398): 294 nM
EC50 (SNU-410): 351 nM
EC50 (SNU-423, SNU-423): 620 nM
EC50 (SNU-449, SNU-449): 3540 nM
EC50 (SNU-475, SNU-475): 2310 nM
